Experimental data: ChEMBL document CHEMBL4732071, “Discovery of selective HDAC/BRD4 dual inhibitors as epigenetic probes” (Eur J Med Chem, 2021)
Activity calls are given as the source filed them. The calls are words filed in the database; no cut-off is given here.

Target: T1, Histone deacetylase 1 (Homo sapiens, UniProt Q13547)
Assay: Inhibition of HDAC1 (unknown origin) by fluorescence based assay
Conditions: not given

T1 sequence (Q13547 whole entry): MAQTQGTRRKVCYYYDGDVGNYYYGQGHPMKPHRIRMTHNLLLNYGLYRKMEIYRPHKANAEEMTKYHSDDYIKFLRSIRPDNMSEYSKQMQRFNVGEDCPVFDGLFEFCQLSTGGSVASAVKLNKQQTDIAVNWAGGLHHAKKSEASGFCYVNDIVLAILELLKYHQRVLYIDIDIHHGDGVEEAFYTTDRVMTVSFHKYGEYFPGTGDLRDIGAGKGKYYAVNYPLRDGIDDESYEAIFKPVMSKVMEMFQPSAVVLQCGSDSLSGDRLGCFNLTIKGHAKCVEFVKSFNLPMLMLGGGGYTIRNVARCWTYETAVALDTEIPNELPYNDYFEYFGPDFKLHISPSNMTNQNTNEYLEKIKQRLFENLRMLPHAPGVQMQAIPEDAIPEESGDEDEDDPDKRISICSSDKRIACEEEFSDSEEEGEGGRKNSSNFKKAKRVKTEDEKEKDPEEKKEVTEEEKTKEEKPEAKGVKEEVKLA

Row | SMILES | IC50 [nM]
1 | Cn1cc(-c2ccccc2Oc2ccccc2)c2cc(C(=O)NCc3ccc(C(=O)Nc4ccccc4N)cc3)[nH]c2c1=O | 126
2 | Cn1cc(-c2ccccc2Oc2ccccc2)c2cc(C(=O)NCc3ccc(C(=O)NO)cc3)[nH]c2c1=O | 168
3 | Cc1cc(F)cc(C)c1Oc1ccc(C(C)(C)O)cc1-c1cn(C)c(=O)c2[nH]c(C(=O)NCCCCCCC(=O)NO)cc12 | 228
4 | CC(C)Oc1ccc(C(C)(C)O)cc1-c1cn(C)c(=O)c2[nH]c(C(=O)NCc3ccc(C(=O)Nc4ccccc4N)cc3)cc12 | 59.7

Target: T2, Protein deacetylase HDAC6 (Homo sapiens, UniProt Q9UBN7)
T2 sequence (Q9UBN7 whole entry): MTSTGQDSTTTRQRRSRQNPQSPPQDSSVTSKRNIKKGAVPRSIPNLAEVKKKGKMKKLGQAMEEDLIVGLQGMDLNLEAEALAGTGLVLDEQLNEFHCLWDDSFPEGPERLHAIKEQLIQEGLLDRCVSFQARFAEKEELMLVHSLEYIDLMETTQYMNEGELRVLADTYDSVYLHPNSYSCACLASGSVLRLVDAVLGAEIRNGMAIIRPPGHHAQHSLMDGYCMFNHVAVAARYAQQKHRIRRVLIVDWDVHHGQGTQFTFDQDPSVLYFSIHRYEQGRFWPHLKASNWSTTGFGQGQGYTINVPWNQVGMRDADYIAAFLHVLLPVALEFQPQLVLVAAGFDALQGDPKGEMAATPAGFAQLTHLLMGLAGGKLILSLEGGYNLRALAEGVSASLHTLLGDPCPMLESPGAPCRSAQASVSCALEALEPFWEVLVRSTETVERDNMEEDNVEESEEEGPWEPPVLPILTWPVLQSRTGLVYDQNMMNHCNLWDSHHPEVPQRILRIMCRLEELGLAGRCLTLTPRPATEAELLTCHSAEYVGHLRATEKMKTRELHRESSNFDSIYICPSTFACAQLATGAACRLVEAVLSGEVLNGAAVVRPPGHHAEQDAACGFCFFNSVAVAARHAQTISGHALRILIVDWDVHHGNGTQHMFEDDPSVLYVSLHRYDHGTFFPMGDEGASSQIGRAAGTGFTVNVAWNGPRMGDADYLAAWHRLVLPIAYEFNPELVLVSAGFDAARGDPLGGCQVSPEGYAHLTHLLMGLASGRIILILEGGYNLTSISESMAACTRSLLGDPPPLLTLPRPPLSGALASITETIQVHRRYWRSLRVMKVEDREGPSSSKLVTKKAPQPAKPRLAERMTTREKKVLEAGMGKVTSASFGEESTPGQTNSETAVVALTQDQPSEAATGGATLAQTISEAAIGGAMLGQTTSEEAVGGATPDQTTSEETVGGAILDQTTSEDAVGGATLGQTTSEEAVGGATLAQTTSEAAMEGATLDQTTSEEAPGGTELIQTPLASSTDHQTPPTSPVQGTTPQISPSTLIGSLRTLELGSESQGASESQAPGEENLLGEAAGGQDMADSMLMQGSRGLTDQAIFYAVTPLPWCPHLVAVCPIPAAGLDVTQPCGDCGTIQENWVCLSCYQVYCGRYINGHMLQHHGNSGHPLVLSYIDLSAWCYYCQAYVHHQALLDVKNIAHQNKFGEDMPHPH
Assay: Inhibition of HDAC6 (unknown origin) by fluorescence based assay
Conditions: not given

Row | SMILES | IC50 [nM]
5 | Cn1cc(-c2ccccc2Oc2ccccc2)c2cc(C(=O)NCc3ccc(C(=O)Nc4ccccc4N)cc3)[nH]c2c1=O | > 500
6 | Cn1cc(-c2ccccc2Oc2ccccc2)c2cc(C(=O)NCc3ccc(C(=O)NO)cc3)[nH]c2c1=O | 15.3
7 | Cc1cc(F)cc(C)c1Oc1ccc(C(C)(C)O)cc1-c1cn(C)c(=O)c2[nH]c(C(=O)NCCCCCCC(=O)NO)cc12 | 17.2

Target: T3, Bromodomain-containing protein 4 (Homo sapiens, UniProt O60885)
Assay: Inhibition of His-tagged BRD4 bromodomain 1 (unknown origin) using [Lys (5,8,12,16) Ac] H4(1-21) as substrate by fluorescence based assay
Conditions: not given

Row | SMILES | IC50 [nM]
8 | Cn1cc(-c2ccccc2Oc2ccccc2)c2cc(C(=O)NCc3ccc(C(=O)Nc4ccccc4N)cc3)[nH]c2c1=O | 31.7
9 | Cn1cc(-c2ccccc2Oc2ccccc2)c2cc(C(=O)NCc3ccc(C(=O)NO)cc3)[nH]c2c1=O | 42.1
10 | Cc1cc(F)cc(C)c1Oc1ccc(C(C)(C)O)cc1-c1cn(C)c(=O)c2[nH]c(C(=O)NCCCCCCC(=O)NO)cc12 | 369
11 | CC(C)Oc1ccc(C(C)(C)O)cc1-c1cn(C)c(=O)c2[nH]c(C(=O)NCc3ccc(C(=O)Nc4ccccc4N)cc3)cc12 | 5.6

Target: T3, Bromodomain-containing protein 4
Assay: Inhibition of His-tagged BRD4 bromodomain 2 (unknown origin) using [Lys (5,8,12,16) Ac] H4(1-21) as substrate by fluorescence based assay
Conditions: not given

Row | SMILES | IC50 [nM]
12 | Cn1cc(-c2ccccc2Oc2ccccc2)c2cc(C(=O)NCc3ccc(C(=O)Nc4ccccc4N)cc3)[nH]c2c1=O | 18.7
13 | Cn1cc(-c2ccccc2Oc2ccccc2)c2cc(C(=O)NCc3ccc(C(=O)NO)cc3)[nH]c2c1=O | 11.3
14 | Cc1cc(F)cc(C)c1Oc1ccc(C(C)(C)O)cc1-c1cn(C)c(=O)c2[nH]c(C(=O)NCCCCCCC(=O)NO)cc12 | 1.2
15 | CC(C)Oc1ccc(C(C)(C)O)cc1-c1cn(C)c(=O)c2[nH]c(C(=O)NCc3ccc(C(=O)Nc4ccccc4N)cc3)cc12 | 2.1

Tested on: MV4-11
Assay: Antiproliferative activity against human MV4-11 cells assessed as cell viability after 72 hrs by CCK8 assay
Assay type: functional, cell-based
Conditions: MV4-11, 72 h

Row | SMILES | IC50 [nM]
16 | Cn1cc(-c2ccccc2Oc2ccccc2)c2cc(C(=O)NCc3ccc(C(=O)Nc4ccccc4N)cc3)[nH]c2c1=O | 80
17 | Cn1cc(-c2ccccc2Oc2ccccc2)c2cc(C(=O)NCc3ccc(C(=O)NO)cc3)[nH]c2c1=O | 570
18 | Cc1cc(F)cc(C)c1Oc1ccc(C(C)(C)O)cc1-c1cn(C)c(=O)c2[nH]c(C(=O)NCCCCCCC(=O)NO)cc12 | 300
19 | CC(C)Oc1ccc(C(C)(C)O)cc1-c1cn(C)c(=O)c2[nH]c(C(=O)NCc3ccc(C(=O)Nc4ccccc4N)cc3)cc12 | 40

Target: T4, Protein deacetylase HDAC6 (Homo sapiens) (UniProt Q9UBN7)
T4 sequence (whole entry): T2 sequence (Q9UBN7 whole entry)
Assay: Inhibition of HDAC6 in human MV4-11 cells assessed as increase in acetylated alpha-tubulin at 10 to 1000 nM incubated for 24 hrs by Western blot analysis
Assay type: cell-based
Conditions: dose 10-1000 nM

Row | SMILES | Acetylated alpha-tubulin increase (active/not active)
20 | Cn1cc(-c2ccccc2Oc2ccccc2)c2cc(C(=O)NCc3ccc(C(=O)Nc4ccccc4N)cc3)[nH]c2c1=O | inactive
21 | Cn1cc(-c2ccccc2Oc2ccccc2)c2cc(C(=O)NCc3ccc(C(=O)NO)cc3)[nH]c2c1=O | Active
22 | Cc1cc(F)cc(C)c1Oc1ccc(C(C)(C)O)cc1-c1cn(C)c(=O)c2[nH]c(C(=O)NCCCCCCC(=O)NO)cc12 | Active

Target: T1, Histone deacetylase 1
Assay: Inhibition of HDAC1 in human MV4-11 cells assessed as increase in acetylated H3 at 10 to 1000 nM incubated for 24 hrs by Western blot analysis
Assay type: cell-based
Conditions: dose 10-1000 nM

Row | SMILES | inhibition
23 | Cn1cc(-c2ccccc2Oc2ccccc2)c2cc(C(=O)NCc3ccc(C(=O)Nc4ccccc4N)cc3)[nH]c2c1=O | Active
24 | Cn1cc(-c2ccccc2Oc2ccccc2)c2cc(C(=O)NCc3ccc(C(=O)NO)cc3)[nH]c2c1=O | inactive
25 | CC(C)Oc1ccc(C(C)(C)O)cc1-c1cn(C)c(=O)c2[nH]c(C(=O)NCc3ccc(C(=O)Nc4ccccc4N)cc3)cc12 | Active

Target: T3, Bromodomain-containing protein 4
Assay: Inhibition of BRD4 in human MV4-11 cells assessed as reduction in c-Myc expression at 10 to 1000 nM measured after 24 hrs by Western blot analysis
Assay type: cell-based
Conditions: dose 10-1000 nM

Row | SMILES | inhibition
26 | Cn1cc(-c2ccccc2Oc2ccccc2)c2cc(C(=O)NCc3ccc(C(=O)Nc4ccccc4N)cc3)[nH]c2c1=O | Active
27 | Cn1cc(-c2ccccc2Oc2ccccc2)c2cc(C(=O)NCc3ccc(C(=O)NO)cc3)[nH]c2c1=O | Active

Target: T3, Bromodomain-containing protein 4
Assay: Inhibition of BRD4 in human MV4-11 cells assessed as upregulation of p21 expression at 10 to 1000 nM measured after 24 hrs by Western blot analysis
Assay type: cell-based
Conditions: dose 10-1000 nM

Row | SMILES | inhibition
28 | Cn1cc(-c2ccccc2Oc2ccccc2)c2cc(C(=O)NCc3ccc(C(=O)Nc4ccccc4N)cc3)[nH]c2c1=O | Active

Target: Histone deacetylase 3 (Homo sapiens, UniProt O15379)
Assay: Inhibition of HDAC3 (unknown origin) by fluorescence based assay
Conditions: not given

Sequence of Histone deacetylase 3 (O15379 whole entry): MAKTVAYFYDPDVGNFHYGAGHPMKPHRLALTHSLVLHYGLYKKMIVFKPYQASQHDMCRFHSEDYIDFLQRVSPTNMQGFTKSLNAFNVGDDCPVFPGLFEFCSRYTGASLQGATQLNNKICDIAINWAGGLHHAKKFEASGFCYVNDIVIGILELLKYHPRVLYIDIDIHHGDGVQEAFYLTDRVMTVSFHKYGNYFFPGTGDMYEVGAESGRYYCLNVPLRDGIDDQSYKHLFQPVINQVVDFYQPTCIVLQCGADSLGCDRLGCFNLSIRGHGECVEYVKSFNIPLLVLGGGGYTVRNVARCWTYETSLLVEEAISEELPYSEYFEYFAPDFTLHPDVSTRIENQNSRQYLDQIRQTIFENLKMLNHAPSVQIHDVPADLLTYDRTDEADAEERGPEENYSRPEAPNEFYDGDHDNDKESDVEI

Row | SMILES | IC50 [nM]
29 | Cc1cc(F)cc(C)c1Oc1ccc(C(C)(C)O)cc1-c1cn(C)c(=O)c2[nH]c(C(=O)NCCCCCCC(=O)NO)cc12 | 161
30 | CC(C)Oc1ccc(C(C)(C)O)cc1-c1cn(C)c(=O)c2[nH]c(C(=O)NCc3ccc(C(=O)Nc4ccccc4N)cc3)cc12 | 1440

Target: Histone deacetylase 4 (Homo sapiens, UniProt P56524)
Assay: Inhibition of HDAC4 (unknown origin) by fluorescence based assay
Conditions: not given

Sequence of Histone deacetylase 4 (P56524 whole entry): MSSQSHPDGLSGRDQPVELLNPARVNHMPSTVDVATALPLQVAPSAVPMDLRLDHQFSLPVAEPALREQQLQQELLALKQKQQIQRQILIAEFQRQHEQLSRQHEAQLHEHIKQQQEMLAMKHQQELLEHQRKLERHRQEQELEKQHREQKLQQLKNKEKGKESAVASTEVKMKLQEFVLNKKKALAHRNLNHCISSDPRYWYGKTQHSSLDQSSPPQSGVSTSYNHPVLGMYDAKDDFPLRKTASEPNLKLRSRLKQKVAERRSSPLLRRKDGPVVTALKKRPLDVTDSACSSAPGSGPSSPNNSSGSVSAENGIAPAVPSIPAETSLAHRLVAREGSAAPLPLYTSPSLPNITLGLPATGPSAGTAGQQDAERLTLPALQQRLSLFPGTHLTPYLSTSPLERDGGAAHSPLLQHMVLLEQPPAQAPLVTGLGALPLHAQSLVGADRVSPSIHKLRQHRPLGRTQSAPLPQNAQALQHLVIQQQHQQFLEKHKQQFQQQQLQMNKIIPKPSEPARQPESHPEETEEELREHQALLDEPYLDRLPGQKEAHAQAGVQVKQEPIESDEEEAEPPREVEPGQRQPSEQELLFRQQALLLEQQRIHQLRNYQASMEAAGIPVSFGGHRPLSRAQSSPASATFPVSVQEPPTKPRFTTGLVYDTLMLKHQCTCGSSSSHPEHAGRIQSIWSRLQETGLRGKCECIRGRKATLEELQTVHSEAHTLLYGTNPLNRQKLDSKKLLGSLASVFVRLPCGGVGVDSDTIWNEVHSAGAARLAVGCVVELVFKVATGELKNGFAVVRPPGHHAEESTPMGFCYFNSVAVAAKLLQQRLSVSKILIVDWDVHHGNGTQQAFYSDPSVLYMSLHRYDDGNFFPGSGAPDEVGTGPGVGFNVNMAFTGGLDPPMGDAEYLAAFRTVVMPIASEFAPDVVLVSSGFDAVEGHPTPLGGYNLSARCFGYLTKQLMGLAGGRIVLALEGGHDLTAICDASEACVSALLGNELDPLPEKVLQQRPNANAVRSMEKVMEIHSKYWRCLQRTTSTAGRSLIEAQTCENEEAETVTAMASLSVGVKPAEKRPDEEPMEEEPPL

Row | SMILES | IC50 [nM]
31 | Cc1cc(F)cc(C)c1Oc1ccc(C(C)(C)O)cc1-c1cn(C)c(=O)c2[nH]c(C(=O)NCCCCCCC(=O)NO)cc12 | > 10000
32 | CC(C)Oc1ccc(C(C)(C)O)cc1-c1cn(C)c(=O)c2[nH]c(C(=O)NCc3ccc(C(=O)Nc4ccccc4N)cc3)cc12 | > 10000

Target: T5, Histone deacetylase 8 (Homo sapiens, UniProt Q9BY41)
T5 sequence (Q9BY41 whole entry): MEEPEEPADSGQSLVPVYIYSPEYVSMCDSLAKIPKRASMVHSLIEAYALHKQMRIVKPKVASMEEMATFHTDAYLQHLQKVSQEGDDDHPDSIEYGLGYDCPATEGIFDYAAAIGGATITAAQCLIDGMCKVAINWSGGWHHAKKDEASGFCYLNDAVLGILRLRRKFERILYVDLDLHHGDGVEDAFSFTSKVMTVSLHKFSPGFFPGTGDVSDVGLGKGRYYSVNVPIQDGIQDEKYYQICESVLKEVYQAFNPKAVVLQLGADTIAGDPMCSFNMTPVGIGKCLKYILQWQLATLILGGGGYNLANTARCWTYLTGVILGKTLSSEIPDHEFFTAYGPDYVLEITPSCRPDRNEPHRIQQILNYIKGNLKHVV
Assay: Inhibition of HDAC8 (unknown origin) by fluorescence based assay
Conditions: not given

Row | SMILES | IC50 [nM]
33 | Cc1cc(F)cc(C)c1Oc1ccc(C(C)(C)O)cc1-c1cn(C)c(=O)c2[nH]c(C(=O)NCCCCCCC(=O)NO)cc12 | 583
34 | CC(C)Oc1ccc(C(C)(C)O)cc1-c1cn(C)c(=O)c2[nH]c(C(=O)NCc3ccc(C(=O)Nc4ccccc4N)cc3)cc12 | > 10000

Target: T6, Histone deacetylase 11 (Homo sapiens, UniProt Q96DB2)
T6 sequence (Q96DB2 whole entry): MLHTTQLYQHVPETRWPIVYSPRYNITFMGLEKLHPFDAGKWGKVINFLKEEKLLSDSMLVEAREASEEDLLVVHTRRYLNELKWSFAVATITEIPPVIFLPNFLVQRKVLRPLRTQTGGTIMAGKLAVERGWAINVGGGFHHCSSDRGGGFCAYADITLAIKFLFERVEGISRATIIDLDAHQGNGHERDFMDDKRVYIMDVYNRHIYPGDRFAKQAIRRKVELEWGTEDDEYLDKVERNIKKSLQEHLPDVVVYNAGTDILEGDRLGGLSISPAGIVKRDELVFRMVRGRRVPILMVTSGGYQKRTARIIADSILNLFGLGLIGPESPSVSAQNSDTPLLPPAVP
Assay: Inhibition of HDAC11 (unknown origin) by fluorescence based assay
Conditions: not given

Row | SMILES | IC50 [nM]
35 | Cc1cc(F)cc(C)c1Oc1ccc(C(C)(C)O)cc1-c1cn(C)c(=O)c2[nH]c(C(=O)NCCCCCCC(=O)NO)cc12 | 2750
36 | CC(C)Oc1ccc(C(C)(C)O)cc1-c1cn(C)c(=O)c2[nH]c(C(=O)NCc3ccc(C(=O)Nc4ccccc4N)cc3)cc12 | > 10000

Target: T3, Bromodomain-containing protein 4
Assay: Inhibition of BRD4 in human MV4-11 cells assessed as reduction in c-Myc expression measured after 24 hrs by Western blot analysis
Assay type: cell-based
Conditions: dose 10-1000 nM

Row | SMILES | inhibition
37 | Cc1cc(F)cc(C)c1Oc1ccc(C(C)(C)O)cc1-c1cn(C)c(=O)c2[nH]c(C(=O)NCCCCCCC(=O)NO)cc12 | Active
38 | CC(C)Oc1ccc(C(C)(C)O)cc1-c1cn(C)c(=O)c2[nH]c(C(=O)NCc3ccc(C(=O)Nc4ccccc4N)cc3)cc12 | Active

Tested on: MV4-11
Assay: Induction of cell cycle arrest in human MV4-11 cells assessed as accumulation at G0/G1 phase at 1000 nM after 24 hrs by flow cytometry
Assay type: functional, cell-based
Conditions: not given

Row | SMILES | Activity
39 | Cc1cc(F)cc(C)c1Oc1ccc(C(C)(C)O)cc1-c1cn(C)c(=O)c2[nH]c(C(=O)NCCCCCCC(=O)NO)cc12 | Active

Tested on: MV4-11
Assay: Induction of apoptosis in human MV4-11 cells at 1000 nM after 24 hrs by flow cytometry relative to control
Assay type: functional
Conditions: not given

Row | SMILES | Activity [%]
40 | Cc1cc(F)cc(C)c1Oc1ccc(C(C)(C)O)cc1-c1cn(C)c(=O)c2[nH]c(C(=O)NCCCCCCC(=O)NO)cc12 | 19.29
41 | CC(C)Oc1ccc(C(C)(C)O)cc1-c1cn(C)c(=O)c2[nH]c(C(=O)NCc3ccc(C(=O)Nc4ccccc4N)cc3)cc12 | 57.31
